Test results: publication PMC4303209, “A novel phosphatidylinositol 3-kinase (PI3K) inhibitor directs a potent FOXO-dependent, p53-independent cell cycle arrest phenotype characterized by the differential induction of a subset of FOXO-regulated genes” (Breast Cancer Research : BCR, 2014)

Legend:
mutated BRAF = experiment: Protein kinase panel screen (ProQinase), mutated BRAF; format: biochemical; conditions: 10 μM
Procedure: (§1) The protein kinase assays depicted in Figure S1 in Additional file 1 and Table S2 in Additional file 2 were performed at ProQinase, GmbH [18].
(§2) Our first objective was to analyse the biological activity of ETP-45658 including the physical and chemical properties of this compound compared to the reference pan-class I PI3K and mTOR inhibitor PI-103 [9]. We characterised the structure of each compound (Figure S1A in Additional file 1) and conducted the in silico analysis of each compound to measure their physiochemical properties (Figure S1B in Additional file 1). We determined the molecular polar surface area (PSA) of each compound, the partition coefficient, the distribution coefficient, compound solubility and the number of hydrogen donors and acceptors. […] Each indicated protein kinase activity was assayed following 10 μM treatment with either compound.
(§3) Supplementary file 13058_2014_482_MOESM1_ESM.jpeg: Additional file 1: Figure S1.: Comparative analysis of ETP-45658 and PI-103. (A) Chemical structure of ETP-45658 and PI-103. (B) Physiochemical properties of ETP-45658 and PI-103, including molecular polar surface area (PSA), partition coefficient (LogP), ACD clogD and solubility at two different pH values including Lipinsky’s Rule of Five (RoF) analysis. […] The kinase activity of PI3K was measured by using the commercial PI3-kinase HTRF™ assay mTOR activity by LanthaScreen™. […]

[1] = target: panel of 24 representative kinases; experiment: Protein kinase panel screen (ProQinase); format: biochemical, human; conditions: 10 μM
Procedure: as §1, §2, §3

mTOR = mTOR (Homo sapiens, UniProt P42345); experiment: mTOR kinase assay (LanthaScreen); format: biochemical; conditions: for inhibitory activity against mTOR: Figure S1C
Procedure: The kinase activity of PI3Kα, PI3Kβ, PI3Kδ and PI3Kγ, mutant PI3Kα (H1047R and E542K) mammalian target of rapamycin (mTOR) and DNA-PK was measured as described previously. The protein kinase assays depicted in Figure S1 in Additional file 1 and Table S2 in Additional file 2 were performed at ProQinase, GmbH [18].
(§4) Supplementary file 13058_2014_482_MOESM1_ESM.jpeg: Additional file 1: Figure S1.: Comparative analysis of ETP-45658 and PI-103. (A) Chemical structure of ETP-45658 and PI-103. (B) Physiochemical properties of ETP-45658 and PI-103, including molecular polar surface area (PSA), partition coefficient (LogP), ACD clogD and solubility at two different pH values including Lipinsky’s Rule of Five (RoF) analysis. (C) Inhibitory activity against PI3K and mTOR. The kinase activity of PI3K was measured by using the commercial PI3-kinase HTRF™ assay mTOR activity by LanthaScreen™. (D) ETP-45658 and PI-103 screen against a panel of 24 kinases. The value shown indicates kinase inhibition (percentage +/− standard deviation) at 10 μM. (E) Migration of MDA-MB231 cells in a two compartment Boyden chamber for 72 hours in the presence of DMSO, ETP-45658 or PI-103 (N = 3). (JPEG 662 KB)

[2] = system: MCF-7 breast cancer cells; experiment: Quantitative real time PCR (qRT-PCR) of selected genes; format: cell-based, human
Procedure: Total RNA was extracted by using Tri-reagent (Sigma-Aldrich). Real-time PCR was performed on a CFX-96 PCR machine (BioRad) using the SsoFastSYBR™ green master mix (BioRad) and following the manufacturer’s guidelines. Data was analysed as described in [29] using the 2^-ΔΔCT methodology.
Figure 4 Genes regulated by FOXO transcription factor and validation of key differentially regulated genes. […] Gene expression in MCF-7 breast cancer cells treated at six and twelve hours with (B) 10 nM ETP-45658 or (C) 10 nM PI-103. In each graph, error bars indicate +/− standard deviation with each gene and condition evaluated in triplicate from N = 3 independent experiments. For each analysis P values are shown (<0.05 is considered significant).
Our genome-wide array and in vitro studies have elucidated that the predominant pathway activated following exposure to ETP-45658 (as well as following PI-103 treatment) was FOXO-mediated cell cycle arrest. […] To strengthen our findings further, we validated our genome-wide array results by quantitative real-time PCR (qRT-PCR). Based on our gene expression profiling data, we selected 11 differentially regulated key genes. […] In our last group, we selected the cyclin-dependent kinase inhibitor 1A (p21), which is regulated by both FOXO and p53, BCL2 binding component 3 (PUMA) and BCL2-associated X (BAX) that are regulated by p53. MCF-7 breast cancer cells were treated with ETP-45658 and six or twelve hours post treatment the total RNA was extracted. We evaluated the expression profile of each gene (normalised to GAPDH using the 2^-ΔΔCT method described in our Materials and methods section) (Figure 4B). […] This response was conserved between the MCF-7 breast cancer cell line (as we would predict based on our array studies) as well as the U2OS osteosarcoma cell line (data not shown).

MDA-MB231 cells = experiment: Boyden chamber matrigel invasion assay; format: cell-based, human; conditions: 72 hours; for capacity of MDA-MB231 cells to migrate through the matrigel: Figure S1E; for cell viability in invasion assay: MDA-MB231
Procedure: Cell-invasive capacity was determined using two-compartment Boyden chamber matrigel invasion assay (BD BioCoat™ Matrigel™ Invasion Chambers, BD Biosciences 354480, BD Biosciences, San Jose, CA, USA). MDA-MB231 cells were allowed to invade for 72 hours at 37°C. All of the inserts and the liquid in each well of the companion plate were removed. 10% serum RPMI medium with 5 μM calcein was added to each and incubated for 1 hour (in darkness). Fluorescence was measured with a luminometer (Envision, PerkinElmer, Inc, Waltham, MA, USA) at 485/535 nm and the results were analyzed in Activity Base (IDBS, Guildford, UK).
as §4

SMILES	average percent inhibition (mutated BRAF) [%]	kinases significantly inhibited in panel of 24 kinases [1]	inhibitory activity against mTOR (mTOR)	potency against mTOR relative to PI-103 (mTOR; compared to reference compound PI-103)	NISCH expression (array and qRT-PCR) [2]	qRT-PCR induction of p53-dependent genes [2]	qRT-PCR CCND1 transcription ([2]; 10 nM)	qRT-PCR expression of CCNG2, Cited2 and BRCA1 ([2]; 10 nM, six or twelve hours)	qRT-PCR TRAIL, FASLG or BCL2L11 transcription ([2]; six hours post treatment)	qRT-PCR TRAIL, FASLG or BCL2L11 transcription ([2]; twelve hours post treatment)	capacity of MDA-MB231 cells to migrate through the matrigel (MDA-MB231 cells)	cell viability in invasion assay (MDA-MB231 cells)
Cn1ncc2c(N3CCOCC3)nc(-c3cccc(O)c3)nc21 [ETP-45658]	38	only mutated BRAF was significantly inhibited	inhibited	almost three times more potent	significantly upregulated	no significant induction	significantly reduced	highly significant induction	no significant change	slight increase (less than two-fold)	inhibited	without significantly affecting cell viability
Oc1cccc(-c2nc(N3CCOCC3)c3oc4ncccc4c3n2)c1 [PI-103]	57.7	only mutated BRAF was significantly inhibited	significantly less potent	–	downregulated	–	significantly reduced	–	–	–	inhibited	without significantly affecting cell viability
